Assay results reported in patent publication US20200283726A1, “PROCESS FOR CONTINUOUS CELL CULTURE OF GPSCS” (Georgetown University, priority 2017, published 2020).

Tested on: gPSCs
Experiment: Upstream/downstream ROCK pathway inhibitors used in the culture conditions in place of a ROCK inhibitor
Type: cell-based
Text: As used herein, inhibiting ROCK can mean to reduce the activity, function or expression of at least one of ROCK1 or ROCK2. […] In general, ROCK phosphorylates LIM kinase and myosin light chain (MLC) phosphatase after being activated through binding of GTP-bound Rho. One embodiment of the present invention thus involves blocking the upstream pathway of ROCK1 and/or ROCK2, for example GTP-bound Rho, such that ROCK1 and/or ROCK2 is not activated or its activity is reduced over untreated cells. Other upstream effectors include but are not limited to, integrins, growth factor receptors, including but not limited to, TGF-beta and EGFR, cadherins, G protein coupled receptors and the like. Another embodiment of the present invention thus involves blocking the activity, function or expression of downstream effector molecules of activated ROCK1 and/or ROCK2 such that ROCK1 and/or ROCK2 cannot propagate any signal or can only propagate a reduced signal over untreated cells. Downstream effectors include but are not limited to, Myosin phosphatase-targeting protein (MYPT), vimentin, LIMK, Myosin light chain kinase, NHE1, cofilin, Myosin II and the like. […] Upstream or downstream inhibition of ROCK, in place of direct ROCK inhibition and in conjunction with the other culture conditions described and required herein, may or may not generate conditionally immortalized gPSCs.

Compound | Effect on cells in culture
Cc1ccc2c(c1)C(=O)C1(O)CCN(c3ccccc3)C1=N2 (centres unmarked) [blebbistatin] | allow the cells to bypass differentiation and allow proliferation in vitro
C3 transferase | allow the cells to bypass differentiation and allow proliferation in vitro
